# Laboratory results reported in patent publication US11452699B2, “Method of treating or preventing tumors of the central nervous system” (Berg LLC, priority 2011, dated 2022).
# Legend:
# Assay type in all cases: in vivo
# [1] = test system: CNS chloroleukemia (metastatic, leukemic CNS tumors); assay: Long term effect of CoQ10 on CNS chloroleukemia in paraplegic Fischer 344 rats (Example 2)
# Procedure: FIG. 4: Long-term Effect of CoQ10 on CNS Leukemia. 300 paraplegic animals with overt CNS leukemia were randomized into two groups of 150 animals each: one received phosphate buffered saline (PBS) and the other group received 100 mg/kg CoQ10 once daily starting on day 1 through day 28 (first cycle). A second cycle of 100 mg/kg CoQ10 once daily started on day 35 and continued through day 62. Animals received two cycles of 28 days each of CoQ10. On days 173 and 195 as indicated by *, 5 animals were sacrificed for necropsy and pathology analysis.
# The model of CNS chloroleukemia in Fischer 344 rats provided in Example 1 was used for long term studies of the treatment of metastatic, leukemic CNS tumors. As in Example 1 chloroleukemic cells were injected into the rats as newborns and lipopolysaccharide (LPS) was given as a first-line of treatment. The cure rate with this regimen was approximately 50%, and approximately 10% of survivors developed CNS leukemia as judged by their motor skills and the presence of quadriplegia and paraplegia.
# For this study of long term effect of CoQ10 on CNS leukemia, 300 paraplegic animals with overt CNS leukemia were randomized into two groups of 150 animals each. Group one received a saline control. Group two received 100 mg/kg CoQ10 once daily starting on day 1 through day 28 (first cycle). The second cycle started on day 35 and continued through day 62. […]
# [2] = test system: CNS chloroleukemia (chloroleukemic cell line MIAC51); assay: Treatment of CNS chloroleukemia in paraplegic Fischer 344 rats with CoQ10 IV (Example 1)
# Procedure: (§1) A model of CNS chloroleukemia was created using Fischer 344 rats, in which chloroleukemic cells were injected into the rats as newborns and lipopolysaccharide (LPS) was given as a first-line of treatment. The cure rate with this regimen was approximately 50%, and approximately 10% of survivors developed CNS leukemia as judged by their motor skills and the presence of quadriplegia and paraplegia.
# (§2) For this study, 2400 Fischer 344 neonates were injected with the chloroleukemic cell line MIAC51 and treated with LPS. All animals with overt signs of leukemia, i.e., systemic disease, were sacrificed by day 26. […] Of that cohort, 150 animals were selected with hind leg paraplegia on day 40, see FIGS. 1A and 1B. These animals were then re-randomized into 5 groups: group 1 received no treatment, group 2 received excipient control IV, group 3 received 5 mg/kg CoQ10 IV (i.e., 15 mg/kg/day), group 4 received 10 mg/kg IV (i.e., 30 mg/kg/day), and group 5 received 25 mg/kg IV (i.e., 75 mg/kg/day) for 4 weeks, 3 times daily.
# chloroleukemic cells = assay: First-line lipopolysaccharide treatment of chloroleukemia in Fischer 344 rats injected as newborns (model creation)
# Procedure: as §1, §2
Compound,"necropsy and pathological analysis for chloroleukemia or CNS tumors ([1]; 100 mg/kg CoQ10, five animals sacrificed on days 173 and 195)","recovery of motor skills / ability to walk ([1]; 100 mg/kg IV once daily, two cycles of 28 days (days 1-28 and 35-62))","signs of improvement (CNS abnormalities, motor skills) ([2]; 5 mg/kg IV 3 times daily (15 mg/kg/day) for 4 weeks, group 3)","MRI for tumor cells ([2]; 5 mg/kg IV 3 times daily (15 mg/kg/day), group 3)","signs of improvement (CNS abnormalities, motor skills) ([2]; 10 mg/kg IV 3 times daily (30 mg/kg/day) for 4 weeks, group 4)","MRI for tumor cells ([2]; 10 mg/kg IV 3 times daily (30 mg/kg/day), group 4)","recovery of motor skills / ability to walk ([2]; 25 mg/kg IV three times per day (75 mg/kg/day) for 4 weeks, group 5)","MRI for tumor cells ([2]; 25 mg/kg IV three times per day (75 mg/kg/day), group 5, FIGS. 3A and B)","mortality due to CNS tumors (mortality curves) ([2]; FIG. 2, animals treated with or without CoQ10, 5, 10, 25 mg/kg IV 3 times daily)",cure rate (chloroleukemic cells; LPS as first-line treatment after injection of chloroleukemic cells into newborn rats),"survivors that developed CNS leukemia (motor skills, quadriplegia and paraplegia) (chloroleukemic cells; survivors of LPS first-line regimen)"
"COC1=C(OC)C(=O)C(C/C=C(\C)CC/C=C(\C)CC/C=C(\C)CC/C=C(\C)CC/C=C(\C)CC/C=C(\C)CC/C=C(\C)CC/C=C(\C)CC/C=C(\C)CCC=C(C)C)=C(C)C1=O [CoQ10, Coenzyme Q10]",No evidence of chloroleukemia or CNS tumors were found,significant recovery of their motor skills and regained their ability to walk,did not exhibit any signs of improvement,positive for tumor cells,did not exhibit any signs of improvement,positive for tumor cells,significant recovery of their motor skills and regained their ability to walk,lack of tumor cells,decrease in mortality due to CNS tumors is observed in a dose-dependent manner,,
lipopolysaccharide [lipopolysaccharide (LPS)],,,,,,,,,,approximately 50%,approximately 10%
